Measured values as given in patent publication US9751876B2, “Bicyclic heterocycle derivatives for the treatment of pulmonary arterial hypertension” (Novartis AG, priority 2011, dated 2017).
Counter-ions that a name gives are not always drawn.

Each compound was assayed on PDGFR (assay: Rat A10 cell proliferation assay). Settings: Rat A10 cells, 1% FBS, 10 ng/mL recombinant rat PDGF-BB, 68 hours with compound, CellTiter-Glo luminescence.
Type: cell-based
Protocol: Compounds of Formula (I), (II) or (III) provided herein were assayed to measure their capacity to inhibit PDGFR kinases using the appropriate assay described below: PDGFR inhibition was evaluated using the Rat A10 cell proliferation.
Rat A10 Cell Proliferation Assay
Rat A10 cells (ATCC) were resuspended in DMEM supplemented with 1% FBS and 10 ng/mL recombinant rat PDGF-BB at 20,000 cells/mL. The cells were aliquoted into 384 well plates at 50 μL/well and incubated for 4 hours at 37° C. […] The plates were returned to the incubator for a further 68 hours. 25 μL of CellTiter-Glo (Promega) was added to each well and the plates were incubated on the bench for 15 minutes. Luminescence was then read using a CLIPR CCD camera (Molecular Devices).
Data were analysed using non-linear regression fitted to sigmoidal (variable slope) curves using a four parameter logistic equation to generate IC50 values for each compound.

| Structure (SMILES) | IC50 [nM] |
| --- | --- |
| C[C@@H]1CCC[C@H](C)N1CCNC(=O)c1ccc(F)c(NC(=O)c2cnc3cc(-c4cccnc4)ccn23)c1 [Example 1.16, 1-(2-(4-fluoro-3-(7-(pyridine-3-yl)imidazo[1,2-a]pyridine-3-carboxamido)benzamido)ethyl)-2,6-cis-dimethylpiperidinium chloride] | 27 |
| O=C(NCc1ccc(F)c(F)c1)c1ccc(F)c(NC(=O)c2cnc3cc(-c4ccc(OCCN5CCCC5)nc4)ccn23)c1 [Example 3.1, N-(5-(3,4-Difluorobenzylcarbamoyl)-2-fluorophenyl)-7-(6-(2-(pyrrolidin-1-yl)ethoxy)pyridin-3-yl)imidazo[1,2-a]pyridine-3-carboxamide hydrochloride] | 13 |
| CC(C)(O)CCc1ccn2c(C(=O)Nc3cc(C(=O)NCc4ccc(F)c(F)c4)ccc3F)cnc2c1 [Example 6.1, N-(5-(3,4-Difluorobenzylcarbamoyl)-2-fluorophenyl)-7-(3-hydroxy-3-methylbutyl)imidazo[1,2-a]pyridine-3-carboxamide] | 41 |
| Cc1ncc(C(=O)NCc2ccccc2N2CCN(C)CC2)cc1NC(=O)c1cnc2cc(-c3ccnn3C)ccn12 [Example 1.19, 1-methyl-4-(2-((6-methyl-5-(7-(1-methyl-1H-pyrazol-5-yl)imidazo[1,2-a]pyridine-3-carboxamido)nicotinamido)methyl)phenyl)piperazin-1-ium chloride] | 74 |
| Cc1ncc(C(=O)NCCN2CCCC2(C)C)cc1NC(=O)c1cnn2cc(-c3ccc(C(=O)NC(C)(C)CO)c(F)c3)ccc12 [Example 7.6, N-(5-(2-(2,2-Dimethylpyrrolidin-1-yl)ethylcarbamoyl)-2-methylpyridin-3-yl)-6-(3-fluoro-4-(1-hydroxy-2-methylpropan-2-ylcarbamoyl)phenyl)pyrazolo[1,5-a]pyridine-3-carboxamide] | 182 |
| Cc1ncc(C(=O)NCCN2CCCCC2(C)C)cc1NC(=O)c1cnn2cc(-c3cnn(C)c3)ccc12 [Example 9.13, N-(5-((2-(2,2-Dimethylpiperidin-1-yl)ethyl)carbamoyl)-2-methylpyridin-3-yl)-6-(1-methyl-1H-pyrazol-4-yl)pyrazolo[1,5-a]pyridine-3-carboxamide] | 7 |
| CN1CCC(Oc2ccc(-c3ccn4c(C(=O)Nc5cc(C(=O)NCC6CCC(C)(C)O6)ccc5F)cnc4c3)cn2)CC1 (stereo not drawn) [Example 3.3, N-(5-(((5,5-dimethyltetrahydrofuran-2-yl)methyl)carbamoyl)-2-fluorophenyl)-7-(6-((1-methylpiperidin-4-yl)oxy)pyridin-3-yl)imidazo[1,2-a]pyridine-3-carboxamide] | 10 |
| CC(C)(CO)NC(=O)c1ccc(-c2ccn3c(C(=O)Nc4cc(C(=O)NCCN5CCCC5(C)C)ccc4F)cnc3c2)cc1F [Example 7.5, N-(5-(2-(2,2-Dimethylpyrrolidin-1-yl)ethylcarbamoyl)-2-fluorophenyl)-7-(3-fluoro-4-(1-hydroxy-2-methylpropan-2-ylcarbamoyl)phenyl)imidazo[1,2-a]pyridine-3-carboxamide] | 8 |
| CN(C)CCCOc1ccc(-c2ccn3c(C(=O)Nc4cc(C(=O)NCc5ccc(F)c(F)c5)ccc4F)cnc3c2)cn1 [Example 1.9, N-(5-(3,4-difluorobenzylcarbamoyl)-2-fluorophenyl)-7-(6-(3-(dimethylamino)propoxy)pyridine-3-yl)imidazo[1,2-a]pyridine-3-carboxamide] | 11 |
| C[C@@H]1CCC[C@H](C)N1CCNC(=O)c1ccc(F)c(NC(=O)c2cnc3cc(-c4cnn(C)c4)ccn23)c1 [Example 1.20, 7-(1-Methyl-1H-pyrazol-4-yl)-imidazo[1,2-a]pyridine-3-carboxylic acid {5-[2-(2,6-cis-dimethyl-piperidin-1-yl)-ethylcarbamoyl]-2-fluoro-phenyl}-amide hydrochloride] | 13 |
| CC(C)(C)OCCNC(=O)c1ccc(F)c(NC(=O)c2cnc3cc(-c4ccc(OCCN5CCCC5)nc4)ccn23)c1 [Example 3.2, N-(5-((2-(tert-Butoxy)ethyl)carbamoyl)-2-fluorophenyl)-7-(6-(2-(pyrrolidin-1-yl)ethoxy)pyridin-3-yl)imidazo[1,2-a]pyridine-3-carboxamide] | 15 |
| CN(C)CCCOc1ccc(-c2ccn3c(C(=O)Nc4cc(C(=O)NCCOC(C)(C)C)ccc4F)cnc3c2)cn1 [Example 2.1, N-(5-(2-tert-Butoxyethylcarbamoyl)-2-fluorophenyl)-7-(6-(3-(dimethylamino)propoxy)pyridin-3-yl)imidazo[1,2-a]pyridine-3-carboxamide] | 3 |
| CCCC1CCN(CCNC(=O)c2ccc(F)c(NC(=O)c3cnc4cc(-c5cnn(C)c5)ccn34)c2)C1 (stereo not drawn) [Example 9.2, N-(2-Fluoro-5-((2-(3-propylpyrrolidin-1-yl)ethyl)carbamoyl)phenyl)-7-(1-methyl-1H-pyrazol-4-yl)imidazo[1,2-a]pyridine-3-carboxamide] | 11 |
| C[C@@H]1CCC[C@H](C)N1CCNC(=O)c1ccc(F)c(NC(=O)c2cnc3cc(-c4ccc(C(=O)NC(C)(C)CO)c(F)c4)ccn23)c1 [Example 8.2, N-(5-(2-(2,6-cis-Dimethylpiperidin-1-yl)ethylcarbamoyl)-2-fluorophenyl)-7-(3-fluoro-4-(1-hydroxy-2-methylpropan-2-ylcarbamoyl)phenyl)imidazo[1,2-a]pyridine-3-carboxamide] | 8 |
| CN1CCN(c2ccccc2CNC(=O)c2ccc(F)c(NC(=O)c3cnc4cc(-c5cc(F)cc(C(=O)NCCO)c5)ccn34)c2)CC1 [Example 8.4, N-(2-Fluoro-5-(2-(4-methylpiperazin-1-yl)benzylcarbamoyl)phenyl)-7-(3-fluoro-5-(2-hydroxyethylcarbamoyl)phenyl)imidazo[1,2-a]pyridine-3-carboxamide] | 112 |
| CC[C@@H]1CN(CCNC(=O)c2ccc(F)c(NC(=O)c3cnc4cc(-c5cnn(C)c5)ccn34)c2)[C@H]1CC [Example 9.15, N-(5-((2-((2S,3R)-2,3-diethylazetidin-1-yl)ethyl)carbamoyl)-2-fluorophenyl)-7-(1-methyl-1H-pyrazol-4-yl)imidazo[1,2-a]pyridine-3-carboxamide] | 2 |
| CC1CC(C)CN(CCNC(=O)c2ccc(F)c(NC(=O)c3cnc4cc(-c5cnn(C)c5)ccn34)c2)C1 (stereo not drawn) [Example 9.4, N-(5-((2-(3,5-Dimethylpiperidin-1-yl)ethyl)carbamoyl)-2-fluorophenyl)-7-(1-methyl-1H-pyrazol-4-yl)imidazo[1,2-a]pyridine-3-carboxamide] | 128 |
| O=C(NCc1ccc(F)c(F)c1)c1ccc(F)c(NC(=O)c2cnc3cc(-c4ccc(C(=O)NCCCN5CCOCC5)c(F)c4)ccn23)c1 [Example 8.1, N-(5-(3,4-Difluorobenzylcarbamoyl)-2-fluorophenyl)-7-(3-fluoro-4-(3-morpholinopropylcarbamoyl)phenyl)imidazo[1,2-a]pyridine-3-carboxamide hydrochloride] | 4 |
| Cc1ccc(C(=O)NCc2ccccc2N2CCN(C)CC2)cc1NC(=O)c1cnn2cc(-c3ccnn3C)ccc12 [Example 4.1, 6-(1-Methyl-1H-pyrazol-5-yl)-N-(2-methyl-5-(2-(4-methylpiperazin-1-yl)benzylcarbamoyl)phenyl)pyrazolo[1,5-a]pyridine-3-carboxamide hydrochloride] | 12 |
| COCCN(C)Cc1cncc(-c2ccn3c(C(=O)Nc4cc(C(=O)NC[C@H]5CCC(C)(C)O5)ccc4F)cnc3c2)c1 [Example 2.6, (R)-N-(5-(((5,5-dimethyltetrahydrofuran-2-yl)methyl)carbamoyl)-2-fluorophenyl)-7-(5-(((2-methoxyethyl)(methyl)amino)methyl)pyridin-3-yl)imidazo[1,2-a]pyridine-3-carboxamide] | 16 |
| CN1CCN(c2ccccc2CNC(=O)c2ccc(F)c(NC(=O)c3cnc4cc(-c5ccc(C(=O)NCCO)c(F)c5)ccn34)c2)CC1 [Example 1.2, 7-(3-Fluoro-4-(2-hydroxyethylcarbamoyl)phenyl)-N-(2-fluoro-5-(2-(4-methylpiperazin-1-yl)benzylcarbamoyl)phenyl)imidazo[1,2-a]pyridine-3-carboxamide] | 40 |
